In article PMC6270921, “Study on the Cytotoxic Activity of Drimane Sesquiterpenes and Nordrimane Compounds against Cancer Cell Lines” (Molecules, 2014) one finds IC50 data, which are given here for one compound.

Some results are limits rather than exact numbers.

What all share (assay type): cell-based
For data set [1], the system named is MCF-7 breast cancer cell line. In words: Cell viability, sulforhodamine B assay. The settings on record: Homo sapiens, MCF7, 72 h exposure, dilutions 12.5 to 100 μM, read-out: Cytotoxicity IC50, MCF-7. As to the method: (§1) The cytotoxicity of compounds 1–12 was evaluated in vitro against different cancer cell lines: MCF-7 breast cancer, DU-145 and PC-3 human prostate cancer, and one non-tumor cell line, human colon epithelial cells CCD 841 CoN (CoN). […] Four serial dilutions (from 12.5 to 100 μM) for each sample were evaluated in triplicate.
(§2) The experimental cell cultures were obtained from the American Type Culture Collection (Rockville, MD, USA). MCF-7 cells (breast cancer cell line), PC-3 and DU-145 (prostate cancer cell lines), and human colon epithelial cells CCD 841 CoN (non-tumoral cell line) were grown in Dulbecco’s modified Eagle’s medium (DMEM) containing 10% FCS, 100 U/mL penicillin, 100 μg/mL streptomycin, and 1 mM glutamine. Cells were seeded into 96 well microtiter plates in 100 μL at a plating density of 5 × 10^3 cells/well. After 24 h incubation at 37 °C under a humidified 5% CO2 atmosphere to allow cell attachment, the cells were treated with different concentrations of drugs and incubated for 72 h under the same conditions. Stock solutions of compounds were prepared in ethanol and the final concentration of this solvent was kept constant at 1%. Control cultures received 1% ethanol alone.
(§3) The sulforhodamine B assay was used according to the method of Skehan et al.. Briefly, the cells were set up at 3 × 10^3 cells per well of a 96 200 μL well, flat-bottomed, microplate. Cells were incubated at 37 °C in a humidified 5% CO2/95% air mixture and treated with the compounds at different concentrations for 72 h. At the end of drug exposure, cells were fixed with 50% trichloroacetic acid at 4 °C. After washing with water, cells were stained with 0.1% sulforhodamine B (Sigma-Aldrich, St. Louis, MO, USA), dissolved in 1% acetic acid (50 μL/well) for 30 min, and subsequently washed with 1% acetic acid to remove unbound stain. Protein-bound stain was solubilized with 100 μL of 10 mM unbuffered Tris base, and the cell density was determined using a […] plate reader (wavelength 540 nm). Values shown are the mean ± SD of three independent experiments in triplicate. The software used to calculate the IC50 values was GraphPad (GraphPad Software, San Diego, CA, USA).
On the technique in general: Sulforhodamine B stains cellular protein and so reports cell mass.

For data set [2], the system named is DU-145 prostate cancer cell line. The experiment in a line: Cell viability, sulforhodamine B assay. The settings on record: Homo sapiens, 72 h exposure, dilutions 12.5 to 100 μM, read-out: Cytotoxicity IC50, DU145. As to the method: as §1, §2, §3
The nature of data set [3]: Cell viability, sulforhodamine B assay. The settings on record: human, CCD 841 CoN colon epithelial cells (non-tumoral cell line), 72 h exposure, dilutions 12.5 to 100 μM, non-tumor cell line, read-out: Cytotoxicity IC50, CoN. As to the method: as §1, §2, §3
Data set [4] deals with PC-3 prostate cancer cell line. The experiment in a line: Cell viability, sulforhodamine B assay. The settings on record: Homo sapiens, 72 h exposure, dilutions 12.5 to 100 μM, read-out: Cytotoxicity IC50, PC-3. As for the experimental part: as §1, §2, §3

Regarding `CC1(C)CCC[C@]2(C)[C@@H](C=O)C(C=O)=CC[C@@H]12` [Compound 1, polygodial], the results for the concentration for half-maximal inhibition (IC50) in data set [1], in data set [2] and in data set [4] were 93.7 ± 9.1 µM, 71.4 ± 8.5 µM and 89.2 ± 6.8 µM, respectively. Besides, the concentration for half-maximal inhibition (IC50) (in general, the concentration at which inhibition is half-maximal) at 72 h in data set [3] was more than 200 µM.
